One test concerns the target T1, human EP4 receptor (Homo sapiens, UniProt P35408).
T1 construct: expressed in transfected cells; host or cells: FreeStyle293 (HEK293F) cells, transient transfection with pcDNA3.1(+), total membrane fraction
Description: hEP4 radioligand binding assay ([3H] PGE2 competitive binding, membrane fractions). Conditions: 1 nM [3H] PGE2; for inhibition at 0.3 µM: 300 nM compound; for inhibition at 1 µM: 1 μM compound. An excerpt:
The full-length coding sequences for human EP1 (NM_000955), human EP2 (NM_000956), human EP3 (NM_198717) and human EP4 (NM_000958) were cloned into pcDNA3.1(+) vector (Life Technologies, CA, USA). In order to prepare overexpressed EP 1-4 membrane in Freestyle293 cells (Life Technologies, CA, USA), the pcDNA3.1(+) vector encoding a cDNA of the relevant gene was transiently transfected into FreeStyle293 cells using 293Fectin (Life Technologies, CA, USA) according to the manufacturer instruction manual. After 2 days, cultured cells were centrifuged (1,000×g, 10 min, 4° C.) and pellets homogenized by a probe sonicator (Sonics vibracell, Sonics and Materials Inc., USA; 31% Amp, 5 sec pulse, Imin interval, 4 cycles) in ice-cold 50 mM Tris-HCl buffer (pH 7.5 at 25° C.) containing 0.5 mM EDTA, 250 mM Sucrose and 10 mM MgCl2. Cell homogenates were centrifuged (890×g, 10 min, 4° C.), and the supernatant was recovered. Total membrane fractions were isolated by ultracentrifugation (140,000×g, 60 min, 4° C.). Pellets were re-suspended in the same buffer, and stored at −80° C. until use. The protein concentration in homogenate was determined with the BCA Protein Assay Kit (Pierce Biotechnology, Inc., IL, USA) according to the manufacturer protocol.
The binding affinity of the compounds was evaluated using a competitive radioligand binding assay which measured the specific binding of [3H] PGE2 to the human EP4 receptor. Briefly, varying concentrations of NCEs were incubated with cell membrane fractions generated HEK293F cells transiently transfected with human EP4 receptor as described above. Each reaction consisted of 10 μg membrane protein and NCE in 50 mM Tris-HCl, pH-6.0 by NaOH, 10 mM MgCl2 and 0.5 mM EDTA assay buffer. Radioligand, [3H] PGE2 (American Radiochemicals Inc. Specific Activity 180 Ci/mmol), at a final of 1 nM was added to each reaction where the final assay volume was 200 μL and concentration of DMSO was adjusted to 1%. Appropriate controls included total binding in the assay (vehicle control) and control for non-specific binding. Non-specific binding was evaluated by incubating the hEP4 protein with 10 μM unlabeled PGE2 under the same assay conditions as NCEs. The reaction was incubated at room temperature for 2 hours and terminated by harvesting the reaction contents to a PEI coated GF/C filter plate (PerkinElmer). The plate was washed four times with cold 50 mM Tris-HCl, pH-7.5 wash buffer and dried at 50° C. for 2 hours or at 37° C. overnight. [3H] PGE2 bound to the protein was quantified by the addition of 25 μL of Microscint PS (PerkinElmer) and plate was read on MicroBeta2 liquid Scintillation and luminescence counter (PerkinElmer). Data was analyzed using GraphPad Prism 5 (GraphPad Software Inc., San Diego, Calif.) where non-specific binding was normalized to 0% specific binding of [3]PGE2 and vehicle control (DMSO) was normalized to 100% specific binding of [3]PGE2. Binding affinity of NCEs, Ki, was generated using One site—Fit Ki equation in GraphPad Prism 5.

The target in test [1] is T2, hEP4 (C6 glioma cells overexpressing hEP4) (Homo sapiens, UniProt P35408).
T2 construct: host or cells: C6 glioma cells overexpressing hEP4
T2 sequence (P35408 whole entry): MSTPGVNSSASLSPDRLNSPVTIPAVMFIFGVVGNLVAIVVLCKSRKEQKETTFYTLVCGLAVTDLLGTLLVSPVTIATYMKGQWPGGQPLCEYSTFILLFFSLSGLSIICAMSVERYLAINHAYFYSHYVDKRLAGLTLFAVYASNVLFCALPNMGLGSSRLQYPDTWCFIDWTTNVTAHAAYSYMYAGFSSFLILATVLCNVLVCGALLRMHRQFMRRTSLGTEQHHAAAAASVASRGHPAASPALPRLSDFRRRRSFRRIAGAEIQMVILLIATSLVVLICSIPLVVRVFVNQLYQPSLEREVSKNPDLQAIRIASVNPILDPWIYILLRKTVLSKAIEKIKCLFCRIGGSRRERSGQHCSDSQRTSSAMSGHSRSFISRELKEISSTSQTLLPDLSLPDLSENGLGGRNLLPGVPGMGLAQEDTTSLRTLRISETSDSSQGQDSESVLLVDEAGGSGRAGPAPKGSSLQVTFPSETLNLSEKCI
Description: hEP4 cell based assay (cAMP), inhibition of PGE2 induced cAMP, HTRF. Conditions: 1 μM compound, PGE2 at EC80. How it is done: The functional assay for hEP4 activation and inhibition was carried out via the quantitative determination of agonist, PGE2, induced cAMP response using HTRF in a competitive immunoassay (Cisbio dynamic 2 kit). NCEs at varying concentrations were evaluated for inhibition of PGE2 induced increase in cAMP. Briefly, C6 glioma cells overexpressing hEP4 (Takeda) were cultured in DMEM (low glucose, pyruvate), 10% FBS (Gibco) and PenStep. The cells were harvested on the day of the assay, washed with HBSS+10 mM HEPES (pH 7.4)+0.1% BSA buffer and pre-incubated with varying concentrations of NCE. Each reaction contained 7000 cells and NCEs in HBSS+10 mM HEPES+0.1% BSA assay buffer along with PDE inhibitors IBMX and Ro 20-1724 (final concentration of each inhibitor […]). Following 15 min pre-incubation, the cells were treated with EC80 concentration of agonist PGE2 for 30 min to induce cAMP. Final volume of the assay was 6 μL and DMSO concentration was maintained at 1%. The reaction was terminated with the addition of cAMP labeled with the dye d2 in lysis buffer according to manufacturers' protocol. This was followed by the addition of the anti-cAMP antibody labeled with Cryptate according to the manufacturers' protocol. The reaction was incubated at room temperature in dark for 45 min and the plate was evaluated for fluorescence at 665 nm (FRET) and 620 nm (cryptate emission) on a Flexstation III microplate reader (Molecular Devices, Sunnyvale, Calif.) Ex max: 313 nm; Em1: 620 nm; Em2: 665 nm. Data was analyzed using GraphPad Prism 5 (GraphPad Software Inc., San Diego, Calif.) where cells treated with agonist (EC80) was normalized to 0% inhibition of hEP4 and cells treated with buffer (no agonist) was normalized to 100% inhibition of hEP4. IC50 of NCEs was generated using non-linear regression—Log(inhibitor) vs. response equation in GraphPad Prism 5.

Structures are written as SMILES.

T1 sequence (P35408 whole entry): as above

Compound `COC(=O)c1ccc([C@H](C)Nc2ncnc3c2N(Cc2cccc(Cl)c2)C(=O)CO3)cc1` [Example A46, methyl 4-[(1S)-1-[[5-[(3-chlorophenyl)methyl]-6-oxo-pyrimido[4,5-b][1,4]oxazin-4-yl]amino]ethyl]benzoate] yielded an inhibition at 0.3 µM on human EP4 receptor of 12%.
In the case of `COC(=O)c1ccc(C2(Nc3nccc4c3N(Cc3ccc(F)c(F)c3)C(=O)CO4)CC2)cc1` [Example A47, methyl 4-[1-[[4-[(3,4-difluorophenyl)methyl]-3-oxopyrido[4,3-b][1,4]oxazin-5-yl]amino]cyclopropyl]benzoate], on human EP4 receptor, at 0.3 µM the inhibition was 12%.
The same measure, in the same setting: to `COC(=O)c1ccc([C@H](C)Nc2nccc3c2N(C(=O)c2ccc(C(F)(F)F)cc2)CCO3)cc1` [Example A48, methyl 4-[(1S)-1-[[4-[4-(trifluoromethyl)benzoyl]-2,3-dihydropyrido[4,3-b][1,4]oxazin-5-yl]amino]ethyl]benzoate] belongs 28%; to `COc1ccc(CNc2nccc3c2N(Cc2ccc(F)c(F)c2)CCO3)cc1` [Example A49, 4-[(3,4-difluorophenyl)methyl]-N-[(4-methoxyphenyl)methyl]-2,3-dihydropyrido[4,3-b][1,4]oxazin-5-amine], 17%.
Same read-out and setting: in the case of `Cc1cccnc1CNc1nccc2c1N(Cc1ccc(F)c(F)c1)CCO2` [Example A50, 4-[(3,4-difluorophenyl)methyl]-N-[(3-methyl-2-pyridyl)methyl]-2,3-dihydropyrido[4,3-b][1,4]oxazin-5-amine] it was 26%.
At human EP4 receptor, `Fc1ccc(CN2CCOc3ccnc(NCC4CCCCC4)c32)cc1F` [Example A51, N-(cyclohexylmethyl)-4-[(3,4-difluorophenyl)methyl]-2,3-dihydropyrido[4,3-b][1,4]oxazin-5-amine] returned an inhibition at 1 µM of 29%.
In turn, `C[C@H](Nc1nccc2c1N(Cc1ccccc1)CCO2)c1ccc(C(=O)O)cc1` [Example B1, 4-[(1S)-1-[(4-Benzyl-2,3-dihydropyrido[4,3-b][1,4]oxazin-5-yl)amino]ethyl]benzoic acid] yielded an inhibition at 0.3 µM at human EP4 receptor of 93%. The compound also registered an inhibition at 1 µM in test [1] of 100%.
For `C[C@H](Nc1nccc2c1N(CCOc1ccc(F)cc1)CCO2)c1ccc(C(=O)O)cc1` [Example B3, 4-[(1S)-1-[[4-[2-(4-Fluorophenoxy)ethyl]-2,3-dihydropyrido[4,3-b][1,4]oxazin-5-yl]amino]ethyl]benzoic acid], in that order: 81% and 90%.
In turn, `C[C@H](Nc1nccc2c1N(Cc1ccc(C(F)(F)F)cc1)CCO2)c1ccc(C(=O)O)cc1` [Example B5, 4-[(1S)-1-[[4-[[4-(trifluoromethyl)phenyl]methyl]-2,3-dihydropyrido[4,3-b][1,4]oxazin-5-yl]amino]ethyl]benzoic acid] came in with an inhibition at 0.3 µM on human EP4 receptor of 74%. In addition, in test [1], the inhibition at 1 µM was determined as 100%.
In turn, `C[C@H](Nc1nccc2c1N(Cc1ccc(F)c(F)c1)CCO2)c1ccc(C(=O)O)cc1` [Example B6, 4-[(1S)-1-[[4-[(3,4-difluorophenyl)methyl]-2,3-dihydropyrido[4,3-b][1,4]oxazin-5-yl]amino]ethyl]benzoic acid] had an inhibition at 0.3 µM on human EP4 receptor of 89%. In test [1], this compound gave an inhibition at 1 µM of 100%.
On human EP4 receptor, `C[C@H](Nc1nccc2c1N(Cc1ccccn1)CCO2)c1ccc(C(=O)O)cc1` [Example B27, 4-[(1S)-1-[[4-(2-pyridylmethyl)-2,3-dihydropyrido[4,3-b][1,4]oxazin-5-yl]amino]ethyl]benzoic acid] displayed an inhibition at 0.3 µM of 42%.
For `C[C@H](Nc1nccc2c1N(Cc1cccnc1)CCO2)c1ccc(C(=O)O)cc1` [Example B28, 4-[(1S)-1-[[4-(3-pyridylmethyl)-2,3-dihydropyrido[4,3-b][1,4]oxazin-5-yl]amino]ethyl]benzoic acid], on human EP4 receptor, testing at 0.3 µM gave an inhibition of 49%.
Regarding `C[C@H](Nc1nccc2c1N(Cc1cccc(Cl)c1)CCN2C)c1ccc(C(=O)O)cc1` [Example B34, 4-[(1S)-1-[[4-[(3-chlorophenyl)methyl]-1-methyl-2,3-dihydropyrido[3,4-b]pyrazin-5-yl]amino]ethyl]benzoic acid], at human EP4 receptor, the inhibition at 0.3 µM turned out to be 42.5%.
On the same count and under the same terms, to `C[C@H](Nc1nccc2c1N(Cc1ccc(C(F)(F)F)cc1)CCN2C)c1ccc(C(=O)O)cc1` [Example B35, 4-[(1S)-1-[[1-methyl-4-[[4-(trifluoromethyl)phenyl]methyl]-2,3-dihydropyrido[3,4-b]pyrazin-5-yl]amino]ethyl]benzoic acid] belongs 42.4%; to `C[C@H](Nc1nccc2c1N(Cc1ccc(C(F)(F)F)cc1)C(=O)CS2)c1ccc(C(=O)O)cc1` [Example B36, 4-[(1S)-1-[[3-oxo-4-[[4-(trifluoromethyl)phenyl]methyl]pyrido[4,3-b][1,4]thiazin-5-yl]amino]ethyl]benzoic acid], 49%; to `C[C@H](Nc1ncnc2c1N(Cc1cccc(Cl)c1)CCO2)c1ccc(C(=O)O)cc1` [Example B38, 4-[(1S)-1-[[5-[(3-chlorophenyl)methyl]-6,7-dihydropyrimido[4,5-b][1,4]oxazin-4-yl]amino]ethyl]benzoic acid], 88%.
On the same count and under the same terms, to `Cc1noc(C)c1CN1CCOc2ccnc(N[C@@H](C)c3ccc(C(=O)O)cc3)c21` [Example B41, 4-[(1S)-1-[[4-[(3,5-dimethylisoxazol-4-yl)methyl]-2,3-dihydropyrido[4,3-b][1,4]oxazin-5-yl]amino]ethyl]benzoic acid] belongs 47%.
In the case of `C[C@H](Nc1nccc2c1N(Cc1ccc(F)c(F)c1)C(=O)CS2)c1ccc(C(=O)O)cc1` [Example B42, 4-[(1S)-1-[[4-[(3,4-difluorophenyl)methyl]-3-oxopyrido[4,3-b][1,4]thiazin-5-yl]amino]ethyl]benzoic acid], at human EP4 receptor, 0.3 µM produced 0.3% inhibition and the inhibition at 1 µM was determined as 26%.
`C[C@H](Nc1nccc2c1N(Cc1cccc(Cl)c1)C(=O)CS2)c1ccc(C(=O)O)cc1` [Example B43, 4-[(1S)-1-[[4-[(3-chlorophenyl)methyl]-3-oxopyrido[4,3-b][1,4]thiazin-5-yl]amino]ethyl]benzoic acid]: at 0.3 µM the inhibition at human EP4 receptor was 10%.
With `C[C@H](Nc1ncc(C2CC2)c2c1N(Cc1cccc(C(F)(F)F)c1)CCO2)c1ccc(C(=O)O)cc1` [Example B47, 4-[(1S)-1-[[8-cyclopropyl-4-[[3-(trifluoromethyl)phenyl]methyl]-2,3-dihydropyrido[4,3-b][1,4]oxazin-5-yl]amino]ethyl]benzoic acid], at human EP4 receptor, at 0.3 µM the inhibition was 60%.

What is called inhibition is the change of the read-out against control, counted positive when it falls. Low values mean a weak effect, high ones a strong effect.

(Values after patent publication US10745397B2, “1-Substituted 1,2,3,4-tetrahydro-1,7-naphthyridin-8-amine derivatives and their use as EP4 receptor antagonists” (TAKEDA PHARMACEUTICAL COMPANY LIMITED, priority 2015, dated 2020).)
